What is called Papp is the rate of passage across a membrane or cell layer, normalised by area and donor concentration.

The test system of data set [1] is differentiated Caco-2 cells. Kind of data set: WST-1 cytotoxicity assay, viability of differentiated Caco-2 cells after 2 h exposure. Format: cell-based, Human. The following applies: for the mixture: concentration of each AGE. The protocol: (§1) Human colon carcinoma cells (Caco-2 cells) were obtained from the American Type Culture Collection (ATCC, Rockville, MD, USA). Caco-2 cells were cultured in complete culture medium, composed of DMEM GlutaMAX with 10% FBS (v/v), 1% P/S (v/v), and 1% NEAA (v/v) at 37 °C in a 5% (v/v) CO2 incubator. In this study, Caco-2 cells within passages 10–15 were utilized.
The WST-1 assay was used to quantify the viability of differentiated Caco-2 cells upon exposure to the individual AGEs and their equimolar mixture. To this end, Caco-2 cells were seeded in 96-well plates at 3 × 10^4 cells/well (100 μL) and incubated at 37 °C under 5% (v/v) CO2 for 20 days. The complete culture medium was refreshed on each alternate day. After full differentiation, the culture medium was removed, and the cells were washed with HBSS (containing 1% (v/v) HEPES) twice on the testing day. The same volume (100 μL) of HBSS containing a series of concentrations of the different individual test compounds or of a mixture containing all 10 AGEs was added from a 20-times-concentrated stock solution in HBSS. The test concentrations were designed based on the estimated daily intake of total AGEs (0.55–0.66 mg/(kg·day)) and high-exposure scenarios (1.4–1.8 mg/(kg day)). […] After exposure for 2 h, the absorbance at 440 and 620 nm was measured in a plate spectrophotometer (Molecular Devices, San Jose, CA, USA, Spectra Max M2). After measurement, the cell viability was calculated as cell viability (%)=(Atested 440 nm−Atested 620 nm)/(Acontrol 440 nm−Acontrol 620 nm)×100
In general terms: Tetrazolium dyes change colour on reduction, which living cells bring about.

The test system of a further data set is Caco-2 cell monolayer. Kind of data set: Accumulation of AGEs in the Caco-2 cell monolayer after transport experiment. Format: in vitro ADME, Human. Conditions: mixture, each AGE 100 μmol/L, 2 h; for percentage of the amount added at the apical side at t = 0: accumulation (intracellular): standard treatment. The protocol:
After the transport experiment, the cell monolayer on the inset membrane was washed three times with HBSS and three times with PBS. […] The samples were subsequently centrifuged at 16 000g for 20 min at 4 °C, and the supernatant was collected for further analysis by LC-MS.
The analytical column was maintained at 40 °C throughout the quantification process. A multistep binary gradient system of water containing 0.1% (v/v) formic acid (solvent A) and acetonitrile containing 0.1% (v/v) formic acid (solvent B) was used. In the whole gradient program, the total proportion of solvents A and B is always equal to 100%. […] The initial flow rate was set to 0.30 mL/min. Subsequently, it was reduced to 0.25 mL/min at 0.3 min, which was kept until 10 min. Afterward, there was a gradual decrease, reaching 0.15 mL/min at 11 min, and this rate was maintained until 12 min. […] Between 1 and 11 min of gradient running, the line was set to MS, and for the other time periods, the line was set to waste. The retention time and mass spectrometry parameters of individual AGEs are listed in Table S1 and the chromatograms of the samples are shown in Figure S1.
On the technique in general: Caco-2 monolayers are a common model of the intestinal barrier.

The next data set relates to Caco-2 cell layer. Kind of data set: Transport of AGE mixture across Caco-2 cell layer (transwell, apical to basolateral). Format: in vitro ADME, Human. Conditions: mixture, each AGE 100 μmol/L, 2 h; for percentage of the amount added at the apical side at t = 0: apical side (nontransported) / percentage of the amount added at the apical side at t = 0: basolateral side (transported): standard treatment. The protocol:
as §1
(§2) Caco-2 cells were cultured until reaching 50%–60% confluence (undifferentiated Caco-2 cells), followed by trypsinization. Then, cells were seeded at 3 × 10^4 cells per insert in 100 μL of complete culture medium into the transwell inserts of a 24-well transwell plate, and 600 μL of complete culture medium was added to the basolateral compartments. In both the apical and basolateral compartments, the medium was renewed every other day. After 2 weeks, the transepithelial electrical resistance (TEER) value was measured using a Millicell ERS-2 Electrical Resistance System (Burlington, MA, USA) every other day. Only wells with a TEER value of >400 Ω/cm^2 were used for transport experiments. Moreover, the TEER value was measured before and after the transport experiment to ascertain that the Caco-2 cell layer remained intact during the whole transport experiment.
(§3) Transport experiments were performed after 20 days of differentiation of the Caco-2 cells. The culture medium was replaced with HBSS (containing 1% (v/v) HEPES) 30 min prior to testing in both the apical and basolateral compartments. After the 30 min preincubation, 100 μL of HBSS containing a mixture of the 10 different AGEs including CML, CEL, GALA, argpyrimidine, MG-H1, GOLD, GOLA, MOLD, pentosidine, and pyrraline, each at 100 μmol/L, was added to the apical compartment after removing the preincubation medium, while the basolateral medium was replaced by 600 μL of HBSS. […] At 120 min, a 10 μL sample from the apical side was taken for calculating apical side retention (nontransported percentage).
(§4) The apparent permeability coefficient (Papp) value was calculated according to the methodology described by Yee.
(§5) AGEs were quantified by LC-MS using a Shimadzu Nexera XR LC-40D XR UPLC system (Kyoto, Japan) equipped with a UPLC Amide column (100 mm × 2.1 mm, 1.7 μm) without derivatization coupled with a Shimadzu LCMS-8045 triple quadrupole mass spectrometer (Kyoto, Japan). The analytical column was maintained at 40 °C throughout the quantification process. A multistep binary gradient system of water containing 0.1% (v/v) formic acid (solvent A) and acetonitrile containing 0.1% (v/v) formic acid (solvent B) was used. In the whole gradient program, the total proportion of solvents A and B is always equal to 100%. The gradient program was designed as follows: 75% solvent B to 12.5% solvent B from 0 to 10 min, followed by 12.5% solvent B from 10 to 11 min. […] The initial flow rate was set to 0.30 mL/min. Subsequently, it was reduced to 0.25 mL/min at 0.3 min, which was kept until 10 min. Afterward, there was a gradual decrease, reaching 0.15 mL/min at 11 min, and this rate was maintained until 12 min. […] Between 1 and 11 min of gradient running, the line was set to MS, and for the other time periods, the line was set to waste. The retention time and mass spectrometry parameters of individual AGEs are listed in Table S1 and the chromatograms of the samples are shown in Figure S1.

The test system of a further data set is PepT1. Described as above. It is filed as in vitro ADME, Human. Conditions: human, mixture, each AGE 100 μmol/L; for recovery at 2 h, 100 μmol/L: Caco-2, with Gly-Sar 10 mmol/L (apical compartment), Gly-Sar 10 mmol/L, read-out: percentage of the amount added at the apical side at t = 0: recovery; for Papp at 120 min, 100 μmol/L: Caco-2, with Gly-Sar 10 mmol/L (apical), 10 mmol/L Gly-Sar apical (PepT1 inhibition), data from 120 min. The protocol: as §1, §2, §3, §4, §5

Experiment in data set [2]: as above
Format: in vitro ADME, Human. Conditions: human; for recovery at 2 h, 100 μmol/L: read-out: percentage of the amount added at the apical side at t = 0: recovery; for Papp at 120 min, 100 μmol/L: data from 120 min. The protocol: as §1, §2, §3, §4, §5

Where [3] appears, read: Caco-2, 4 °C, mixture, each AGE 100 μmol/L.
Where [4] appears, read: Caco-2, cytochalasin D pretreatment, mixture, each AGE 100 μmol/L.
[5] abbreviates: Caco-2, standard treatment (37 °C), equimolar mixture of 10 AGEs, each 100 μmol/L apical.
The mark [6] stands for this setting: Caco-2, standard treatment, mixture, each AGE 100 μmol/L.
The mark [7] stands for this setting: Caco-2, cytochalasin D 1 μg/mL, 30 min apical preincubation, mixture, each AGE 100 μmol/L.

Each structure is given as a SMILES string. Where two headings read alike, the source gives them in different places. Marks after values point to notes of the source that are not given here. Where only a bound is given, the exact number is not on record here.

Take `CC1NC(NCCC[C@H](N)C(=O)O)=NC1=O` (stereo partly shown) [MG-H1, methylglyoxal–hydroimidazolone]: the “concentration that did not significantly affect cell viability” value in data set [1] was not above 750 µM. Further, the “percentage of the amount added at the apical side at t = 0: accumulation” value was 0.0 ± 0.0 ^b % in the data set on Caco-2 cell monolayer (4 °C), 0.3 ± 0.1 ^b % in the data set with Caco-2 cell monolayer (Gly-Sar 10 mmol/L) and 0.3 ± 0.1 ^b % with Caco-2 cell monolayer (cytochalasin D pretreatment). Also, the “percentage of the amount added at the apical side at t = 0: accumulation (intracellular)” value in the data set on Caco-2 cell monolayer is 0.3 ± 0.1 ^a %. The “percentage of the amount added at the apical side at t = 0: apical side” value is 89.7 ± 5.5 ^a % with Caco-2 cell layer (4 °C), 90.1 ± 5.8 ^a % with Caco-2 cell layer (Gly-Sar 10 mmol/L) and 93.0 ± 4.5 ^a % with Caco-2 cell layer (cytochalasin D pretreatment). In addition, the figures for the “percentage of the amount added at the apical side at t = 0: basolateral side” value with Caco-2 cell layer (4 °C), in the data set on Caco-2 cell layer (Gly-Sar 10 mmol/L) and with Caco-2 cell layer (cytochalasin D pretreatment) were 0.3 ± 0.1 ^b %, 0.4 ± 0.2 ^b % and 1.2 ± 0.6 ^a %, respectively. Besides, the “percentage of the amount added at the apical side at t = 0: apical side (nontransported)” value (“percentage … (nontransported)” below) in the data set on Caco-2 cell layer is given as 93.4 ± 3.6 ^a %. For the same compound, the “percentage of the amount added at the apical side at t = 0: basolateral side (transported)” value in the data set with Caco-2 cell layer is recorded as 0.4 ± 0.2 ^b %. The recovery at 2 h, 100 μmol/L in the data set on PepT1 was found to be 90.8 ± 5.9%; in data set [2] (setting [3]), 89.7 ± 5.4%; in data set [2] (setting [4]), 94.6 ± 4.2%; in data set [2] (setting [6]), 94.1 ± 3.6%. Further, the Papp at 120 min, 100 μmol/L in the data set on PepT1 was 0.168 ×10⁻⁶ cm/s; in data set [2] (setting [3]) it was 0.107 ×10⁻⁶ cm/s; in data set [2] (setting [5]), 0.182 ×10⁻⁶ cm/s; in data set [2] (setting [7]) it was 0.526 ×10⁻⁶ cm/s.
As for `Cc1c[n+](CCCC[C@H](N)C(=O)O)cn1CCCC[C@H](N)C(=O)O` [MOLD, methylglyoxal–lysine dimer], in data set [1], the “concentration that did not significantly affect cell viability” value was not above 1500 µM. The figures for the “percentage of the amount added at the apical side at t = 0: accumulation” value with Caco-2 cell monolayer (4 °C), in the data set with Caco-2 cell monolayer (Gly-Sar 10 mmol/L) and in the data set on Caco-2 cell monolayer (cytochalasin D pretreatment) were 0.0 ± 0.0 ^a %, 0.0 ± 0.1 ^a % and 0.0 ± 0.1 ^a %, respectively. Also, the “percentage of the amount added at the apical side at t = 0: apical side” value in the data set on Caco-2 cell layer (4 °C) is recorded as 83.0 ± 6.5 ^b %; with Caco-2 cell layer (Gly-Sar 10 mmol/L) it was 93.5 ± 7.2 ^a %; in the data set on Caco-2 cell layer (cytochalasin D pretreatment) it was 90.8 ± 12.2 ^ab %. For the same compound, the results for the “percentage of the amount added at the apical side at t = 0: basolateral side” value in the data set on Caco-2 cell layer (4 °C), in the data set with Caco-2 cell layer (Gly-Sar 10 mmol/L) and in the data set on Caco-2 cell layer (cytochalasin D pretreatment) were 0.1 ± 0.1 ^b %, 0.3 ± 0.2 ^b % and 0.8 ± 0.6 ^a %, respectively. In the data set with Caco-2 cell layer, the “percentage … (nontransported)” value was 90.6 ± 7.7 ^ab %. For the same compound, the “percentage of the amount added at the apical side at t = 0: basolateral side (transported)” value in the data set with Caco-2 cell layer was 0.2 ± 0.2 ^b %. The recovery at 2 h, 100 μmol/L amounted to 93.8 ± 7.2% in the data set on PepT1, 83.1 ± 6.5% in data set [2] (setting [3]), 91.7 ± 12.6% in data set [2] (setting [4]) and 90.8 ± 7.9% in data set [2] (setting [6]). The Papp at 120 min, 100 μmol/L is 0.11 ×10⁻⁶ cm/s in the data set with PepT1, 0.057 ×10⁻⁶ cm/s in data set [2] (setting [3]), 0.098 ×10⁻⁶ cm/s in data set [2] (setting [5]) and 0.34 ×10⁻⁶ cm/s in data set [2] (setting [7]).
For `Cc1nc(NCCC[C@H](N)C(=O)O)nc(C)c1O` [argpyrimidine], in data set [1], the “concentration that did not significantly affect cell viability” value is not above 500 µM. Moreover, the entries for the “percentage of the amount added at the apical side at t = 0: accumulation” value in the data set with Caco-2 cell monolayer (4 °C), in the data set on Caco-2 cell monolayer (Gly-Sar 10 mmol/L) and in the data set with Caco-2 cell monolayer (cytochalasin D pretreatment) were 0.0 ± 0.0 ^b %, 0.5 ± 0.2 ^a % and 0.5 ± 0.3 ^a %, respectively. Further, in the data set with Caco-2 cell monolayer, the “percentage of the amount added at the apical side at t = 0: accumulation (intracellular)” value is listed as 0.2 ± 0.2 ^b %. The “percentage of the amount added at the apical side at t = 0: apical side” value is recorded as 87.1 ± 5.4 ^b % in the data set with Caco-2 cell layer (4 °C), 93.8 ± 5.0 ^a % in the data set with Caco-2 cell layer (Gly-Sar 10 mmol/L) and 93.3 ± 5.2 ^a % in the data set with Caco-2 cell layer (cytochalasin D pretreatment). Besides, the “percentage of the amount added at the apical side at t = 0: basolateral side” value in the data set with Caco-2 cell layer (4 °C) was 0.2 ± 0.1 ^b %; with Caco-2 cell layer (Gly-Sar 10 mmol/L) it was 0.3 ± 0.1 ^b %; in the data set with Caco-2 cell layer (cytochalasin D pretreatment), 0.9 ± 0.6 ^a %. Besides, in the data set on Caco-2 cell layer, the “percentage … (nontransported)” value is 91.2 ± 5.9 ^ab %. The recovery at 2 h, 100 μmol/L in the data set with PepT1 came to 94.6 ± 5.2%; in data set [2] (setting [3]), 87.4 ± 5.4%; in data set [2] (setting [4]), 94.7 ± 5.4%; in data set [2] (setting [6]), 91.8 ± 5.9%. For the same compound, the apparent permeability (Papp) at 120 min, 100 μmol/L in the data set with PepT1 turned out to be 0.141 ×10⁻⁶ cm/s; in data set [2] (setting [3]) it was 0.099 ×10⁻⁶ cm/s; in data set [2] (setting [5]) it was 0.145 ×10⁻⁶ cm/s; in data set [2] (setting [7]), 0.395 ×10⁻⁶ cm/s.

These data come from publication PMC12426922, “Fingerprinting the Intestinal Transport of Low-Molecular-Mass Advanced Glycation End-Products (AGEs) Using a Caco‑2 Transwell Model” (Journal of Agricultural and Food Chemistry, 2025).
